Reference: the supplement of paper PMC11451515

Legend:
Conditions in all cases: 48 h
[1] = tested on: NOMO1; assay: AUC of viability dose-response curve (% viability x log10 dose units); higher = less sensitive
In short: (§1)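 Over 48 h at 37°C, leukemia cells in 1536-well plates (500 or 1000 cells/well), adapted to each medium, received library compounds in DMSO at 11 threefold doses from 47 μM to 0.79 nM. CellTiter-Glo One luminescence, normalised per plate to DMSO and cell-free wells, was fitted by a four-parameter log-logistic function of log10 dose. The area under the curve was then integrated by trapezoidal rule, after scaling curves above full viability and removing those that failed quality control.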

[2] = tested on: SEM cells; assay: as above
In short: as §1

[3] = tested on: P12-Ichikawa; assay: as above
In short: as §1

[4] = tested on: NOMO1; assay: cell viability relative to DMSO control; higher = less cytotoxic
In short: (§2)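 Library compounds in DMSO were pin-dosed into 1536-well plates (5 μl) holding NOMO1 or SEM (500 cells/well) or P12-Ichikawa (1000 cells/well) leukemia cells, across an 11-point threefold series of 47 μM to 0.79 nM. Each cell line had been adapted for at least four passages in each medium. CellTiter-Glo One luminescence was read after 48 h at 37°C. Viability is the per-plate percentage relative to DMSO wells, with cell-free wells as background.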

[5] = tested on: SEM cells; assay: as above
In short: as §2

[6] = tested on: P12-Ichikawa; assay: as above
In short: as §2

COC1=CC=CC(=C1N)\C2=C\C(=O)C3=C(O2)C=CC=C3
AUC of viability dose-response curve
Conditions | [1] | [2] | [3]
HPLM + 10% dialyzed FBS | 464 | 432 | 469
RPMI 5 mM glucose + 10% FBS | 466 | 428 | 459
RPMI 5 mM glucose + 10% dialyzed FBS | 463 | 419 | 465

cell viability [%]
Conditions | [4] | [5] | [6]
HPLM + 10% dialyzed FBS, 0.000781 µM | – | 99.8 | 110
HPLM + 10% dialyzed FBS, 0.00234 µM | – | 123 | 122
HPLM + 10% dialyzed FBS, 0.00702 µM | – | 124 | 122
HPLM + 10% dialyzed FBS, 0.0211 µM | – | 130 | 133
HPLM + 10% dialyzed FBS, 0.0632 µM | – | 129 | 128
HPLM + 10% dialyzed FBS, 0.19 µM | – | 146 | 129
HPLM + 10% dialyzed FBS, 0.569 µM | – | 140 | 134
HPLM + 10% dialyzed FBS, 1.71 µM | – | 145 | 129
HPLM + 10% dialyzed FBS, 5.12 µM | – | 148 | 129
HPLM + 10% dialyzed FBS, 15.4 µM | – | 145 | 133
HPLM + 10% dialyzed FBS, 46.1 µM | – | 156 | 120
RPMI 5 mM glucose + 10% FBS, 0.000781 µM | 120 | 119 | –
RPMI 5 mM glucose + 10% FBS, 0.00234 µM | 121 | 112 | –
RPMI 5 mM glucose + 10% FBS, 0.00702 µM | 119 | 120 | –
RPMI 5 mM glucose + 10% FBS, 0.0211 µM | 117 | 121 | –
RPMI 5 mM glucose + 10% FBS, 0.0632 µM | 143 | 136 | –
RPMI 5 mM glucose + 10% FBS, 0.19 µM | 125 | 136 | –
RPMI 5 mM glucose + 10% FBS, 0.569 µM | 143 | 161 | –
RPMI 5 mM glucose + 10% FBS, 1.71 µM | 124 | 143 | –
RPMI 5 mM glucose + 10% FBS, 5.12 µM | 126 | 141 | –
RPMI 5 mM glucose + 10% FBS, 15.4 µM | 121 | 177 | –
RPMI 5 mM glucose + 10% FBS, 46.1 µM | 116 | 144 | –
RPMI 5 mM glucose + 10% dialyzed FBS, 0.000781 µM | – | 106 | –
RPMI 5 mM glucose + 10% dialyzed FBS, 0.00234 µM | – | 111 | –
RPMI 5 mM glucose + 10% dialyzed FBS, 0.00702 µM | – | 134 | –
RPMI 5 mM glucose + 10% dialyzed FBS, 0.0211 µM | – | 134 | –
RPMI 5 mM glucose + 10% dialyzed FBS, 0.0632 µM | – | 128 | –
RPMI 5 mM glucose + 10% dialyzed FBS, 0.19 µM | – | 136 | –
RPMI 5 mM glucose + 10% dialyzed FBS, 0.569 µM | – | 145 | –
RPMI 5 mM glucose + 10% dialyzed FBS, 1.71 µM | – | 164 | –
RPMI 5 mM glucose + 10% dialyzed FBS, 5.12 µM | – | 149 | –
RPMI 5 mM glucose + 10% dialyzed FBS, 15.4 µM | – | 160 | –
RPMI 5 mM glucose + 10% dialyzed FBS, 46.1 µM | – | 155 | –

C[C@@H](NC(=O)c1ncnc(N)c1Cl)c1ncc(C(=O)Nc2cc(C(F)(F)F)c(Cl)cn2)s1
AUC of viability dose-response curve
Conditions | [1] | [2] | [3]
HPLM + 10% dialyzed FBS | 451 | 470 | 461
RPMI 5 mM glucose + 10% FBS | 460 | 467 | 449
RPMI 5 mM glucose + 10% dialyzed FBS | 453 | 467 | 448

Conditions | cell viability [%]
[4], RPMI 5 mM glucose + 10% FBS, 0.000781 µM | 99.4
[4], RPMI 5 mM glucose + 10% FBS, 0.00234 µM | 124
[4], RPMI 5 mM glucose + 10% FBS, 0.00702 µM | 124
[4], RPMI 5 mM glucose + 10% FBS, 0.0211 µM | 121
[4], RPMI 5 mM glucose + 10% FBS, 0.0632 µM | 125
[4], RPMI 5 mM glucose + 10% FBS, 0.19 µM | 122
[4], RPMI 5 mM glucose + 10% FBS, 0.569 µM | 138
[4], RPMI 5 mM glucose + 10% FBS, 1.71 µM | 127
[4], RPMI 5 mM glucose + 10% FBS, 5.12 µM | 114
[4], RPMI 5 mM glucose + 10% FBS, 15.4 µM | 103
[4], RPMI 5 mM glucose + 10% FBS, 46.1 µM | 88.3
[5], RPMI 5 mM glucose + 10% FBS, 0.000781 µM | 113
[5], RPMI 5 mM glucose + 10% FBS, 0.00234 µM | 119
[5], RPMI 5 mM glucose + 10% FBS, 0.00702 µM | 105
[5], RPMI 5 mM glucose + 10% FBS, 0.0211 µM | 127
[5], RPMI 5 mM glucose + 10% FBS, 0.0632 µM | 125
[5], RPMI 5 mM glucose + 10% FBS, 0.19 µM | 126
[5], RPMI 5 mM glucose + 10% FBS, 0.569 µM | 127
[5], RPMI 5 mM glucose + 10% FBS, 1.71 µM | 121
[5], RPMI 5 mM glucose + 10% FBS, 5.12 µM | 121
[5], RPMI 5 mM glucose + 10% FBS, 15.4 µM | 112
[5], RPMI 5 mM glucose + 10% FBS, 46.1 µM | 106
[5], RPMI 5 mM glucose + 10% dialyzed FBS, 0.000781 µM | 123
[5], RPMI 5 mM glucose + 10% dialyzed FBS, 0.00234 µM | 128
[5], RPMI 5 mM glucose + 10% dialyzed FBS, 0.00702 µM | 112
[5], RPMI 5 mM glucose + 10% dialyzed FBS, 0.0211 µM | 126
[5], RPMI 5 mM glucose + 10% dialyzed FBS, 0.0632 µM | 139
[5], RPMI 5 mM glucose + 10% dialyzed FBS, 0.19 µM | 134
[5], RPMI 5 mM glucose + 10% dialyzed FBS, 0.569 µM | 135
[5], RPMI 5 mM glucose + 10% dialyzed FBS, 1.71 µM | 137
[5], RPMI 5 mM glucose + 10% dialyzed FBS, 5.12 µM | 131
[5], RPMI 5 mM glucose + 10% dialyzed FBS, 15.4 µM | 119
[5], RPMI 5 mM glucose + 10% dialyzed FBS, 46.1 µM | 96.2
[6], HPLM + 10% dialyzed FBS, 0.000781 µM | 124
[6], HPLM + 10% dialyzed FBS, 0.00234 µM | 119
[6], HPLM + 10% dialyzed FBS, 0.00702 µM | 121
[6], HPLM + 10% dialyzed FBS, 0.0211 µM | 123
[6], HPLM + 10% dialyzed FBS, 0.0632 µM | 120
[6], HPLM + 10% dialyzed FBS, 0.19 µM | 122
[6], HPLM + 10% dialyzed FBS, 0.569 µM | 116
[6], HPLM + 10% dialyzed FBS, 1.71 µM | 115
[6], HPLM + 10% dialyzed FBS, 5.12 µM | 116
[6], HPLM + 10% dialyzed FBS, 15.4 µM | 104
[6], HPLM + 10% dialyzed FBS, 46.1 µM | 92.7

CO/C1=C/C(C)=C\[C@@H](C)[C@@H](O)[C@@H](C)C/C(C)=C\C=C/[C@H](OC)[C@@H]([C@@H](C)[C@@H](O)[C@H](C)[C@@]2(O)C[C@@H](O)[C@H](C)[C@@H](C(C)C)O2)OC1=O
AUC of viability dose-response curve
Conditions | [1] | [2] | [3]
HPLM + 10% dialyzed FBS | 208 | 213 | 291
RPMI 5 mM glucose + 10% FBS | 229 | 211 | 263
RPMI 5 mM glucose + 10% dialyzed FBS | 218 | 206 | 225

cell viability [%]
Conditions | [4] | [5] | [6]
HPLM + 10% dialyzed FBS, 0.000781 µM | 79.5 | 91 | 88.2
HPLM + 10% dialyzed FBS, 0.00234 µM | 97.1 | 74.8 | 99.5
HPLM + 10% dialyzed FBS, 0.00702 µM | 91.8 | 91 | 91.5
HPLM + 10% dialyzed FBS, 0.0211 µM | 90.6 | 48.6 | 96.3
HPLM + 10% dialyzed FBS, 0.0632 µM | 58.8 | 28.7 | 81.7
HPLM + 10% dialyzed FBS, 0.19 µM | 12.1 | 27 | 39.5
HPLM + 10% dialyzed FBS, 0.569 µM | 12.7 | 27 | 34.8
HPLM + 10% dialyzed FBS, 1.71 µM | 11.1 | 25.2 | 34.8
HPLM + 10% dialyzed FBS, 5.12 µM | 12.6 | 32 | 37.5
HPLM + 10% dialyzed FBS, 15.4 µM | 10.5 | 29 | 36.8
HPLM + 10% dialyzed FBS, 46.1 µM | 9.72 | 29.7 | 33
RPMI 5 mM glucose + 10% FBS, 0.000781 µM | 105 | 80.9 | 89
RPMI 5 mM glucose + 10% FBS, 0.00234 µM | 95.9 | 75 | 96.6
RPMI 5 mM glucose + 10% FBS, 0.00702 µM | 107 | 88.1 | 99.1
RPMI 5 mM glucose + 10% FBS, 0.0211 µM | 82.3 | 46.8 | 88.6
RPMI 5 mM glucose + 10% FBS, 0.0632 µM | 88.7 | 29.2 | 70.1
RPMI 5 mM glucose + 10% FBS, 0.19 µM | 12.5 | 26.2 | 37.8
RPMI 5 mM glucose + 10% FBS, 0.569 µM | 9.12 | 24.6 | 29.4
RPMI 5 mM glucose + 10% FBS, 1.71 µM | 7.87 | 29.9 | 27.9
RPMI 5 mM glucose + 10% FBS, 5.12 µM | 9.62 | 31.8 | 26.4
RPMI 5 mM glucose + 10% FBS, 15.4 µM | 8.77 | 32.8 | 25.4
RPMI 5 mM glucose + 10% FBS, 46.1 µM | 7.13 | 31.8 | 22.1
RPMI 5 mM glucose + 10% dialyzed FBS, 0.000781 µM | 99.8 | 81.3 | 82.4
RPMI 5 mM glucose + 10% dialyzed FBS, 0.00234 µM | 103 | 79.9 | 88.3
RPMI 5 mM glucose + 10% dialyzed FBS, 0.00702 µM | 104 | 87.8 | 88.3
RPMI 5 mM glucose + 10% dialyzed FBS, 0.0211 µM | 83 | 38.1 | 75.2
RPMI 5 mM glucose + 10% dialyzed FBS, 0.0632 µM | 73.7 | 27.3 | 60.7
RPMI 5 mM glucose + 10% dialyzed FBS, 0.19 µM | 8.37 | 27.8 | 29.9
RPMI 5 mM glucose + 10% dialyzed FBS, 0.569 µM | 8.28 | 29.6 | 19.9
RPMI 5 mM glucose + 10% dialyzed FBS, 1.71 µM | 8.09 | 30.1 | 21.3
RPMI 5 mM glucose + 10% dialyzed FBS, 5.12 µM | 7.93 | 26.2 | 19.4
RPMI 5 mM glucose + 10% dialyzed FBS, 15.4 µM | 6.37 | 29.7 | 20
RPMI 5 mM glucose + 10% dialyzed FBS, 46.1 µM | 6.62 | 30.3 | 18
